The values that follow come from publication PMC9555310, “Novel inhibitors and activity-based probes targeting serine proteases” (Frontiers in Chemistry, 2022).

In the experiment the target is T1, NE (Homo sapiens, UniProt P08246).
T1 construct: purchased Calbiochem
T1 sequence (P08246 30-267): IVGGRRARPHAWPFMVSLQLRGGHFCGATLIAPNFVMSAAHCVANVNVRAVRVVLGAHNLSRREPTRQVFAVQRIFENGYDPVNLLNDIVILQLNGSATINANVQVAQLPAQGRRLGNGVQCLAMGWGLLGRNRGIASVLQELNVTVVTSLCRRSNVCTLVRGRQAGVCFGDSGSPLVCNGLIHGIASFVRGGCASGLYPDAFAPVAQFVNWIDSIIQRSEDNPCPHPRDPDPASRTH
The experiment can be described thus: Activity-based profiling of NE (SDS-PAGE, streptavidin-HRP western blot). The experiment is classed as binding. Conditions: 50 μM ABP, 30 min, 37°C; labelling extinguished by heat inactivation of NE. As to the method: Samples of recombinant protease (trypsin, plasmin, thrombin, chymotrypsin, or HNE, as indicated in the relevant figure legends) were treated with each of the newly synthesized compounds at a concentration of 50 μM, for 30 min, at 37°C. A control sample (no ABP) was prepared by treating the recombinant protease with solvent vehicle (DMF) only, used to prepare the stock solution of each ABP. Samples were also pre-treated (±90°C for 30 min) before being incubated with each putative ABP. With trypsin and thrombin, further samples were prepared where Z-Arg^P-(OPh)2 or NAP559, respectively, was added 30 min prior to the addition of the ABP under examination. […]
FIGURE 7 Activity Based Profiling of serine proteases by peptide N-Alkyl glycine carbamates. […] CF Sol (sample 26w) was used at a final concentration of 2.5% (v/v), and the level of NE contained therein was measured using Succinyl-Ala-Ala-Pro-Val-NHMec (50 μM), in the absence (-- o --) and presence (-- o --) of NAP800 (50 μM). […]
Following transfer, the extra protein binding sites on the membrane were blocked by addition of 3% (w/v) BSA in TBST (20 mM Tris, 137 mM NaCl, 1% (v/v) Tween 20, pH 7.6) and agitated gently at room temperature for 30 minutes. The biotin-labelled proteases were then detected by addition of Streptavidin-HRP (Vector Laboratories) in 3% (w/v) BSA in TBST at a concentration of 1:20000, for 1 hour at room temperature. […]
A general note: A western blot detects proteins with antibodies after separation by electrophoresis.

`CC(C)N(CC(=O)NCC(=O)NCC(=O)NCCCOCCOCCOCCCNC(=O)CCCCC1SCC2NC(=O)NC21)C(=O)ON1C(=O)CCC1=O` (stereo not drawn) [NAP800, Succinimidoyl-CO-NVal-Gly-Gly-PEG-Biotin]: the “labelling of NE by ABP (western blot)” value is “labels a protein band corresponding to the expected molecular size/mass of NE”.
